From US11191798B2, “Extracts of Andrographis paniculata, methods for preparation and use thereof” (NUTRITION SCIENCE PARTNERS LIMITED, priority 2016, dated 2021) come the findings set out here.

Molecules are shown by their SMILES.

Test [1] deals with FGF1. The test is described as follows: FGF1 mRNA expression in human T84 cell line (Assay 6). It is filed as cell-based. To be noted: about 24 hours. The method, then:
Enhancement of FGF1 expression of Example 7 and the four ingredients AND, NAND, DAND, and DDAND was investigated in human T84 cell line.
The adherent epithelial cell line T84 was used in the assay. For sustaining cell culture, T84 cells were incubated with DMEM/F-12 (1:1) medium containing 5% FBS at 37° C. with 5% CO2. Sub-culture was performed when cells reached 90% confluence.
(§1) For the assay, the cells were trypsinized and suspended in culture medium. The cell density was determined and adjusted to 1×10^6 cells/mL. Then, the cells were seeded into a 96-well plate and incubated at 37° C. with 5% CO2 overnight.
The two Andrographis paniculata extracts, Standard 1 and Example 7, and AND, NAND, DAND, DDAND, and the mixture of them (named as the mixture of 4 markers, wherein the amounts of AND, NAND, DAND, and DDAND were 69%, 11%, 5%, and 15%, respectively, by weight relative to the weight of the mixture) were serially diluted in DMSO and further diluted in medium. Diluted solution was added into wells. The final concentrations for Standard 1 were: 300 and 100 μg/mL. The final concentration for Example 7 was: 100 μg/mL. The final concentration for NAND, DAND and DDAND was 10 μg/mL and AND was 40 μg/mL. The final concentrations for mixture of 4 markers were: 100 and 30 μg/mL. The plate was incubated at 37° C. with 5% CO2 for about 24 hours. The supernatants were removed and 150 μL RLT buffer was added into each well. The plate was stored at −80° C. until RNA extraction.
Total RNA was extracted using RNeasy 96 kit (QIAGEN) and cDNA was synthesized from RNA template using High Capacity cDNA RT kit (Applied Biosystems). Quantitative real-time PCR detection of gene expression was using SYBR Premix Ex Taq TM II (TakaRa). Expression of genes analyzed by q-PCR was normalized to GAPDH using the fold change (2^−ΔΔCT) method. The formula used in the calculation is shown as follows: Fold=2^−ΔΔCT=2^−[(CT^test sample^−CT^test sample_GAPDH^)−(CT^minimum^−CT^minimum_GAPDH^)] where CTtest sample is the CT value of target gene in cells treated with the test samples; CTtest sample-GAPDH is the CT value of GAPDH gene in cells treated with the test samples; CTminimum is the CT value of target gene in cells treated without test samples, and CTminimum-GAPDH is the CT value of GAPDH gene in cells treated without test samples.

A further test has as its system DNBS-induced rat colitis. The test is described as follows: DNBS-induced rat colitis prophylactic model. It is filed as in vivo, Wistar rats.
For test [2], the system named is EGF. Nature of the test: EGF mRNA expression in epithelial cell line T84. It is filed as cell-based, human. To be noted: about 24 hours. The procedure:
(§2) Enhancement of EGF and FGF expression were investigated in a human HT-29 and T84 cell lines.
(§3) Two adherent epithelial cell lines, HT29 and T84, were used in the assay. For sustaining cell culture, HT29 cells were incubated in cell culture dish with McCoy's 5a Medium containing 10% FBS, and T84 cells were incubated with DMEM/F-12 (1:1) medium containing 5% FBS. All cells were incubated at 37° C. with 5% CO2. Sub-culture was performed when cells reached 90% confluence.
as §1
(§4) The two Andrographis paniculata extracts, Standard 1 and Example 1, were serially diluted in DMSO and further diluted in medium. Diluted solution was added into wells. The final concentrations for Standard 1 were: 300, 100, 30 and 10 μg/mL. The final concentrations for Example 1 were: 100, 30, 10 and 1 μg/mL. […]
(§5) Total RNA was extracted using RNeasy 96 kit (QIAGEN) and cDNA was synthesized from RNA template using High Capacity cDNA RT kit (Applied Biosystems). Quantitative real-time PCR detection of gene expression was using SYBR Premix Ex Taq TM II (TakaRa). Expression of genes analyzed by q-PCR was normalized to GAPDH using the fold change (2^−ΔΔCT) method. […]

Test [3] deals with FGF1. Nature of the test: FGF1 mRNA expression in epithelial cell T84 (Assay 5). To be noted: about 24 hours. The class given is cell-based, human. The procedure:
as §2, §3, §1, §4, §5

The next test deals with FGF2. The test is described as follows: FGF2 mRNA expression in epithelial cell T84 (Assay 5). It is filed as cell-based, human. The settings on record: about 24 hours. The method, then: as §2, §3, §1, §4, §5
Test [4] deals with EGF. Nature of the test: EGF mRNA expression in epithelial cell line HT29. It is filed as cell-based, human. To be noted: about 24 hours. The method, then: as §2, §3, §1, §4, §5
[5] abbreviates: Experiment 1, 300 mg/kg PO, mean±SD.

Description for DNBS-induced rat colitis: Assay 7: The In Vivo Efficacy of Andrographis Extract in a DNBS-Induced Rat Colitis Prophylactic Model 1. Materials 1.1. Test Compounds and Formulation Methods • Test articles: Two Andrographis paniculata extracts, Example 10 used in Experiment 1 and Example 11 used in Experiment 2. • Control drugs: Standard 1; and Sulfasalazine (SASP), Sigma-Aldrich, Cat S0883.
Oral suspension of the test articles and Standard 1 were prepared as follows: the test articles and Standard 1 were respectively weighed and added into a 50 mL centrifuge tube. 0.5% sodium carboxymethylcellulose (0.5% CMC-Na) was added. Sonicate for 15 min to give suspensions with desired concentration. The fresh-made formulation was stored away from light, and homogenized thoroughly before use. The administration volume was 10 ml/kg.
Oral suspension of SASP was prepared as follows: SASP was weighed and added into a 50 mL centrifuge tube. 0.5% CMC-Na was added. Sonicate for 15 min to give 30 mg/mL suspension. The fresh-made formulation was stored away from light, and homogenized thoroughly before use. The administration volume was 10 ml/kg.
Male Wistar rats, 110-130 g, were purchased from Shanghai SLAC Laboratory Animal Co. Ltd.
Wistar rats were randomized assigned. The fasting rats were anesthetized with 25 mg/kg Zoletil and 0.5 mg/kg xylazine. And colitis was induced by intracolonic administration of 10 mg or 12 mg DNBS dissolved in 0.25 mL of 30% ethanol (v/v). The animals in naive control group were instilled with 30% ethanol only.
• Body weight: Body weights of animals were checked daily on and after grouping. • Diarrhea score: Stool consistency of the animals was monitored and scored daily from the 3rd day after the model induction. Evaluation criteria: 0=formed, 1=moist/sticky, 2=loose, 3=liquid. • Colon weight and length measurement: Rats were sacrificed 4 h post the last dosing on the 6th day. The abdomen was opened by a midline incision. Adhesion degree of colon and other organs was observed. The colon (from cecum end to the anus) was emptied of its content, rinsed with saline. The weight and length of the colon were measured, and then the colon ratio (colon weight/colon length) was calculated. • Histopathology analysis: Proximal colon with obvious ulcer was made into Swiss Rolls, fixed in 10% neutral formalin solution, dehydrated with xylene, embedded in paraffin, sectioned, and stained with hematoxylin and eosin (H&E). […] The severity of lesion was graded based on a semi-quantitative scale using the sum of scores of the following 10 evaluation indicators (see table 7).
All of the data were presented as mean±SD.
Body weight data were analyzed with repeated-measures ANOVA analysis by GraphPad Prism 6.0 software. Fisher's Least Significant Difference (LSD) test was used to perform significance analysis. p value was calculated. *p<0.05 refers to significant difference between vehicle control group and each of the treated groups. **p<0.01 refers to extremely significant difference between vehicle control group and each of the treated groups.
The colon ratio inhibition of each animal was calculated by the following formula, wherein CW refers to colon weight, CL refers to colon length:
The statistical analysis of the data of colon length and colon ratio was performed by Graphpad Prism 6.0 software. Unpaired t test or Mann-Whitney test were applied to analyze the significance analysis between test article treated groups and vehicle treated group, based on the normality of the data.

Regarding `C=C1CC[C@@H]2[C@](C)(CO)[C@H](O)CC[C@@]2(C)[C@@H]1CCC1=CCOC1=O` [DAND, 14-deoxyandrographolide], in the test on FGF1 [1] (T84, 10 μg/mL), the FGF1 up-regulation effect result is recorded as “did not show similar FGF1 up-regulation effect”.
Same read-out and setting: in the case of `C=C1CCC2C(C)(CO)C(O)CCC2(C)C1/C=C/C1=CCOC1=O` (stereo not shown) [DDAND, 14-Deoxy-11,12-dehydroandrographolide] it was “did not show similar FGF1 up-regulation effect”.
Consider `O=C(O)c1cc(/N=N/c2ccc(S(=O)(=O)Nc3ccccn3)cc2)ccc1O` [SASP, Sulfasalazine], for which the colon histopathology findings result in the test on DNBS-induced rat colitis (300 mg/kg/day, 8 samples) is “five samples showed severe mucosal erosion and inflammatory cell infiltration”. Also, the “Colon ratio inhibition, %” value in the test on DNBS-induced rat colitis (Experiment 1, 300 mg/kg PO) turned out to be 44.5%. Besides, in the test on DNBS-induced rat colitis (setting [5]), the “Colon ration CW/CL (%)” value was 0.0846 ± 0.0089 %; the “Crypt abscesses, histopathological score” value amounted to 0.1 ± 0.4; the “Degree of cellular infiltrate, histopathological score” value came to 2.1 ± 0.8; the “Degree of erosion/ulcer, histopathological score” value came out at 1.6 ± 1.4. In the test on DNBS-induced rat colitis (setting [5]), the “Degree of mucosa edema, histopathological score” value came to 1.6 ± 0.9; the “Epithelium hyperplasia, histopathological score” value is given as 0.8 ± 0.5; the “Goblet cell depletion, histopathological score” value is on record as 0.9 ± 0.4; the “Muscle thickening, histopathological score” value stood at 1.4 ± 0.9. Besides, in the test with DNBS-induced rat colitis (setting [5]), the “Severe destruction for erosion (%), histopathological score” value came out at 0.8 ± 0.7; the “Severely affected in infiltration (%), histopathological score” value amounted to 1.6 ± 0.7; the “The sum of score (colon histopathology)” value was 12.5 ± 6.3; the “Total area affected (%), histopathological score” value is 1.6 ± 0.7.
For the compound `C=C1CC[C@@H]2[C@](C)(CO)[C@H](O)CC[C@@]2(C)[C@@H]1C/C=C1/C(=O)OC[C@H]1O` [AND, Andrographolide], the “mRNA expression of EGF in T84 cells” value with EGF [2] was “increased”. In addition, the FGF1 up-regulation effect result in the test on FGF1 [1] (T84, 40 μg/mL) is recorded as “did not show similar FGF1 up-regulation effect”. The “mRNA expression of FGF1 in T84 cells” value with FGF1 [3] is listed as “had no similar effect”. In the test on FGF2, the “mRNA expression of FGF2 in T84 cells” value is given as “had no similar effect”. Further, in the test with EGF [4], the “mRNA expression of EGF in HT29 cells” value is recorded as “increased”.
Turning to `C=C1CC[C@@H]2[C@](C)(CO[C@@H]3O[C@H](CO)[C@@H](O)[C@H](O)[C@H]3O)CCC[C@@]2(C)[C@@H]1CCC1=CCOC1=O` [NAND, Neoandrographolide], the FGF1 up-regulation effect result with FGF1 [1] (T84, 10 μg/mL) is on record as “did not show similar FGF1 up-regulation effect”.
